Tests used:
[1] = Terminal half-life; conditions: in vivo
[2] = test system: healthy female subjects; experiment: Example 1 clinical study, one 28-day cycle: dysmenorrhea as treatment-emergent adverse event; assay type: in vivo, human
Procedure: During that study, healthy female subjects were treated for one 28-day cycle with either 10 or 20 mg E4 alone (n=10 and 11, respectively) or with a combination of E4 with either Progesterone (P) or Desogestrel (DSG) (n=15 or 16, respectively).
At baseline, occasional dysmenorrhea was reported by 11 subjects (21.2%), and frequent dysmenorrhea was reported by 19 subjects (36.5%). Overall, dysmenorrhea was reported by 25% to 53.3% of the subjects included in this trial.
As shown in Table 3 of Treatment-emergent adverse events (TE-AE) below, reporting of dysmenorrhea during the treatment phase was low in comparison to the incidence recorded at baseline.

[3] = Triglycerides levels on daily estrogen use; assay type: in vivo, human; conditions: even at higher dosages
Text: Besides, the daily use of currently marketed estrogens (ethinylestradiol (EE), E2, E2V, conjugated equine estrogens) is associated with a dose-proportional increase in triglycerides levels. In the human body, high levels of triglycerides in the bloodstream have been linked to atherosclerosis and, by extension, the risk of heart disease and stroke.

[4] = 10 mg E4, n = 10, one 28-day cycle
[5] = 20 mg E4 alone (n = 11), with DSG (n = 15) or with P4 (n = 16), one 28-day cycle

terminal half-life [1]: 31.7 h
triglycerides levels [3]: minimally increases triglycerides levels
Structure (SMILES): C[C@]12CC[C@@H]3c4ccc(O)cc4CC[C@H]3[C@@H]1[C@@H](O)[C@@H](O)[C@@H]2O [E4, estetrol]
Dysmenorrhea TE-AE, % of subjects [2, 4]: 10.0%
Dysmenorrhea TE-AE, number of subjects [2, 4]: 1
Dysmenorrhea TE-AE, % of subjects [2, 5]: 9.1%
Dysmenorrhea TE-AE, number of subjects [2, 5]: 1

Source: patent US11896602B2, “Method for preventing pregnancy” (ESTETRA SRL, priority 2016, dated 2024)
